Converted amounts (≈) assume the structure as drawn.
Legend:
[1] = system: Mycobacterium smegmatis ATCC 607; test: Antimicrobial activity against Mycobacterium smegmatis ATCC 607 (agar plate-cylinder); assay type: cell-based; details: standard bleomycin A2 (copper-free) assumed 1,000 mcg potency/mg
Description: (§1) 2. ANT[…] MYC[…] ATCC 607 AND BACILLUS SUBTILIS
(§2) The antimicrobial activity was tested against the captioned test organisms by the method of agar plate-cylinder. The activity was recorded on the assumption that the activity of standard sample of bleomycin A2 (copper-free form) is 1,000 mcg poteney/mg.

[2] = system: Bacillus subtilis; test: Antimicrobial activity against Bacillus subtilis (agar plate-cylinder); assay type: cell-based; details: standard bleomycin A2 (copper-free) assumed 1,000 mcg potency/mg
Description: as §1, §2

[3] = system: HeLa S3 cells; test: Growth inhibitory activity against cultured HeLa S3 cells; assay type: cell-based; details: Homo sapiens, HeLa S3, 72 h; Cu-free; 3 days; read-out: 50% Growth inhibitory concentration of Cu-free compd. against cultured HeLaS3 cells (ID50)
Description: 3. GROWTH INHIBITORY ACTIVITY AGAINST CULTURED HELA S3 CELLS
HeLa S3 cells were inoculated into a medium (MEM with 10% bovine serum) placed in a plastic petri dish. Two days thereafter, a bleomycin was added to the dish. After 3 days of breeding, the number of cells were counted. The percentage growth inhibition was calculated using the following equation:
Percentage inhibition (%)=100×(B-A)/(B-C) where A is the final number of cells after 3 days from the addition of test sample, B is the final number of cells in the control without addition of the test smaple, and C is the number of cells at the time of addition of the test sample.

[4] = target: T1, bleomycin-inactivating enzyme (Rattus norvegicus, UniProt P70645); test: in vitro; details: liver extract
T1 sequence (P70645 1-454): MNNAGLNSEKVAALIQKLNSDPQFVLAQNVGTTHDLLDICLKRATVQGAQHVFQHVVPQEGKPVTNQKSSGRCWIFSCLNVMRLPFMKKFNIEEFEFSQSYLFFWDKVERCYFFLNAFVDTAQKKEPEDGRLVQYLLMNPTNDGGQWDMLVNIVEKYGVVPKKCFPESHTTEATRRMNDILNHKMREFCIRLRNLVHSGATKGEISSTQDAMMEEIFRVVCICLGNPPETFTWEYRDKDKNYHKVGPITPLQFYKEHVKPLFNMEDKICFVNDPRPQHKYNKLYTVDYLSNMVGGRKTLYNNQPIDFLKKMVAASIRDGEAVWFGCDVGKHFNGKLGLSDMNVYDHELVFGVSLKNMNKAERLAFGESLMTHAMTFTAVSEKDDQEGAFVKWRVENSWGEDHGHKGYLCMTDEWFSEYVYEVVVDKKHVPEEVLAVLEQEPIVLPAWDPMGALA

[5] = target: T1, bleomycin-inactivating enzyme; details: rated under conditions where inactivation of bleomycin B2 is 50%; 37° C., 40 minutes; residual activity against M. smegmatis ATCC 607
[6] = system: pulmonary fibrosis; test: Pulmonary toxicity (pulmonary fibrosis) in mice; details: for Incidence: Number of mice with pulmonary fibrosis (%) / Incidence: Number of mice with pulmonary fibrosis / Grade: Total score of pulmonary fibrosis/total number of samples / Grade: Total score of pulmonary fibrosis/total number of samples (%): ICR mice, 5 mg/kg i.p. once a day for 10 days; for Incidence: Number of mice with pulmonary fibrosis (%) / Incidence: Number of mice with pulmonary fibrosis: 5 weeks observation; for Incidence: Number of mice with pulmonary fibrosis: mice with fibrosis/total; for Grade: Total score of pulmonary fibrosis/total number of samples / Grade: Total score of pulmonary fibrosis/total number of samples (%): points 0, 1, 2, 4, 6; for Ratio (by comparison with "Bleomycin Complex"): versus Bleomycin Complex
[7] = CDF1/SLC male mice, s.c. once a day for 10 days, Behrens-Karber, daily dose
Description: From the mortality during the administration period, LD50 (daily dose) was determined by the method of Behrens-Karber.

SMILES | Antimicrobial potency of Cu-free compound against Mycobacterium smegmatis ATCC 607 [1] | Antimicrobial potency of Cu-free compound against Bacillus subtilis [2] | IC50 [3] | metabolised at 40 min [4] | Resistance of Cu-free compound against inactivating enzyme (degree of inactivation) [5] | Incidence: Number of mice with pulmonary fibrosis (%) [6] | Incidence: Number of mice with pulmonary fibrosis [6] | Grade: Total score of pulmonary fibrosis/total number of samples [6] | Grade: Total score of pulmonary fibrosis/total number of samples (%) [6] | Ratio (by comparison with "Bleomycin Complex") [6] | LD50 during administration period of 10 consecutive days [7]
CNC(=O)C(N)CNC(CC(N)=O)c1nc(N)c(C)c(C(=O)NC(C(=O)NC(C)C(O)C(C)C(=O)NC(C(=O)NCCc2nc(-c3nc(C(=O)NCCc4c[nH]cn4)cs3)cs2)C(C)O)C(OC2OC(CO)C(O)C(O)C2OC2OC(CO)C(O)C(OC(N)=O)C2O)c2cnc[nH]2)n1 (stereo not drawn) [Compound 1, 2-(4'-Imidazolyl)ethylamino-(amido)N--[methyl]-BLM] | 1447 mcg potency/mg | 654 mcg potency/mg | 1.2 µg/mL (≈ 0.845 µM) | 5 to 14% |  |  |  |  |  |  | 
CCNC(=O)C(N)CNC(CC(N)=O)c1nc(N)c(C)c(C(=O)NC(C(=O)NC(C)C(O)C(C)C(=O)NC(C(=O)NCCc2nc(-c3nc(C(=O)NCCc4c[nH]cn4)cs3)cs2)C(C)O)C(OC2OC(CO)C(O)C(O)C2OC2OC(CO)C(O)C(OC(N)=O)C2O)c2cnc[nH]2)n1 (stereo not drawn) [Compound 2, 2-(4'-Imidazolyl)ethylamino-(amido)N--[ethyl]-BLM] | 1895 mcg potency/mg | 767 mcg potency/mg | 0.98 µg/mL (≈ 0.683 µM) | 15 to 24% |  |  |  |  |  |  | 
CCN(CC)CCCC(C)NC(=O)C(N)CNC(CC(N)=O)c1nc(N)c(C)c(C(=O)NC(C(=O)NC(C)C(O)C(C)C(=O)NC(C(=O)NCCc2nc(-c3nc(C(=O)NCCCNC(C)c4ccccc4)cs3)cs2)C(C)O)C(OC2OC(CO)C(O)C(O)C2OC2OC(CO)C(O)C(OC(N)=O)C2O)c2cnc[nH]2)n1 [Compound 36, 3-((S)-1'-phenylethylamino)propylamino-(amido)N--[4-diethylamino-1-methylbutyl]-BLM] | 6061 mcg potency/mg | 3694 mcg potency/mg |  |  | + +++ |  |  |  |  |  | 
CCCCN(CCCC)CCCNC(=O)C(N)CNC(CC(N)=O)c1nc(N)c(C)c(C(=O)NC(C(=O)NC(C)C(O)C(C)C(=O)NC(C(=O)NCCc2nc(-c3nc(C(=O)NCCC[N+](CC)(CC)CCCN(Cc4ccccc4)Cc4ccccc4)cs3)cs2)C(C)O)C(OC2OC(CO)C(O)C(O)C2OC2OC(CO)C(O)C(OC(N)=O)C2O)c2cnc[nH]2)n1 (stereo not drawn) [Compound 57, 3-{N,N--diethyl-N--[3-(dibenzylamino)propyl]amino}propylamino-(amido)N--[3-(di-n-butylamino)propyl]-BLM] | 25924 mcg potency/mg | 1831 mcg potency/mg |  |  | +++ + | 0% | 0/9 | 0/27 | 0% | 0 | 
Cc1c(N)nc(C(CC(N)=O)NCC(N)C(=O)NCCCNC(C)c2ccccc2)nc1C(=O)NC(C(=O)NC(C)C(O)C(C)C(=O)NC(C(=O)NCCc1nc(-c2nc(C(=O)NCCCN(C)CCCN(Cc3ccc(OCc4ccccc4)c(OCc4ccccc4)c3)Cc3ccc(OCc4ccccc4)c(OCc4ccccc4)c3)cs2)cs1)C(C)O)C(OC1OC(CO)C(O)C(O)C1OC1OC(CO)C(O)C(OC(N)=O)C1O)c1cnc[nH]1 [Compound 64, 3-{N--methyl-N--[3-bis(m,p-dibenzyloxybenzyl)aminopropyl]amino}-propylamino-(amido)N--[3-((S)-1'-phenylethyl)aminopropyl]-BLM] | 115 mcg potency/mg | 23 mcg potency/mg |  |  |  | 0% | 0/9 | 0/27 | 0% | 0 | > 81.4 mg/kg/day
CCCCCCCCNC(=O)C(N)CNC(CC(N)=O)c1nc(N)c(C)c(C(=O)NC(C(=O)NC(C)C(O)C(C)C(=O)NC(C(=O)NCCc2nc(-c3nc(C(=O)NCCCN(C)CCCN(Cc4ccc(OCc5ccccc5)c(OCc5ccccc5)c4)Cc4ccc(OCc5ccccc5)c(OCc5ccccc5)c4)cs3)cs2)C(C)O)C(OC2OC(CO)C(O)C(O)C2OC2OC(CO)C(O)C(OC(N)=O)C2O)c2cnc[nH]2)n1 (stereo not drawn) [Compound 65, 3-{N--methyl-N--[3-bis(m,p-dibenzyloxybenzyl)aminopropyl]amino}-propylamino-(amido)N--[n-octyl]-BLM] | 153 mcg potency/mg | 13 mcg potency/mg |  |  |  | 0% | 0/9 | 0/27 | 0% | 0 | > 75.7 mg/kg/day
Cc1c(N)nc(C(CC(N)=O)NCC(N)C(N)=O)nc1C(=O)NC(C(=O)NC(C)C(O)C(C)C(=O)NC(C(=O)NCCc1nc(-c2nc(C(=O)NCCCCNC(=N)N)cs2)cs1)C(C)O)C(OC1OC(CO)C(O)C(O)C1OC1OC(CO)C(O)C(OC(N)=O)C1O)c1cnc[nH]1 (stereo not drawn) [bleomycin B2, reference compound] |  |  |  | 50% |  |  |  |  |  |  | 
